From patent US6809208B2, “3-Arylbenzofuranones with electron-withdrawing substituents as stabilizers” (Ciba Specialty Chemicals Corporation, priority 2000, dated 2004) come the findings set out here.

Test [1] is described as follows: Light-colored SBR-vulcanisate, ozone atmosphere for 96 hours: crack formation. The arrangement: key: grade 0: Grade 0 denotes no cracks; grade 1 denotes narrow flat cracks; grade 2 denotes moderately broad, moderately deep cracks, clearly visible; grade 3 denotes broad and deep cracks. The conditions noted are these: 2.0 phr stabilizer, ozone 50 pphm, 40° C., dynamic elongation, without stabilizer grade 2. The method, then: (§1) 100 parts by weight of Cariflex®S-1502 (styrene/butadiene rubber, Shell) are processed at 60° C., in a mixing mill, with 30.0 parts by weight of Kronos®CL 220 [titanium dioxide (pigment), Kronos Titan GmbH], 30.0 parts by weight of Aktisil®MM [kaolin (filler), Hoffmann Mineral, Neuburg/Donau], 5.0 parts by weight of Naftolen®N 401 [plasticiser, Metallgesellschaft], 10.0 parts by weight of zinc oxide [vulcanization activator], 2.0 parts by weight of stearic acid [vulcanization activator], 2.0 parts by weight of sulfur [vulcanizing agent], 1.0 part by weight of Vulkacit®MOZ [vulcanization accelerator, Bayer], 0.25 part by weight of Vulkacit®Thiuram [vulcanization accelerator, […], to form a homogeneous mixture, the vulcanization system (sulfur, Vulkacit®MOZ and Vulkacit®Thiuram) not being added until the end of the mixing process. The mixture is vulcanized in electrical vulcanization presses at 150° C. until T95 is reached in the rheometer curves to form elastomer plates 2 mm thick, 21 cm long and 8.0 cm wide.
Some of the elastomer plates so obtained are tested for the action of ozone according to the ASTM standard D 3395-86 while subject to dynamic elongation. In this test the plates are first stored for 30 days in a standard atmosphere [23/50 SN-ISO 291]. Test specimens measuring 20 cm by 1 cm are then punched out and exposed to an ozone atmosphere for 96 hours (ozone content: 50 pphm; temperature: 40° C.; humidity: 50% rel.; elongation: 0 to 25%; elongation rate: 0.5 Hz; number of load cycles: approximately 173 000). The test plates are then assessed for crack formation according to ASTM D 3395-86. Grade 0 denotes no cracks; grade 1 denotes narrow flat cracks; grade 2 denotes moderately broad, moderately deep cracks, clearly visible; grade 3 denotes broad and deep cracks. The lower the grade number, the better the stabilization of the elastomer plates.

Test [2] can be described thus: Light-colored SBR-vulcanisate (Example 23): ΔL-color after 3 weeks in diffuse daylight. The conditions noted are these: 2.0 phr stabilizer; 3 weeks at room temperature in diffuse daylight; scale 0 to 100, 100 = no discoloration; without stabilizer 97. Here is the method:
as §1
(§2) The remaining elastomer plates are stored for 3 weeks at room temperature in a standard laboratory atmosphere in diffuse daylight. The ΔL-color of those plates is then determined according to DIN 6167, which corresponds to a scale of from 0 to 100. No discoloration is indicated by a value of 100.

Test [3] in a line: Light-colored SBR-vulcanisate (Example 22): ΔL-color after 3 weeks in diffuse daylight. As to conditions: 1.0 phr stabilizer; 3 weeks at room temperature in diffuse daylight; scale 0 to 100, 100 = no discoloration; without stabilizer 94. Here is the method:
(§3) 100 parts by weight of Cariflex®S-1502 (styrene/butadiene rubber, Shell) are processed at 60° C., in a mixing mill, with 30.0 parts by weight of Kronos®CL 220 [titanium dioxide (pigment), Kronos Titan GmbH], 30.0 parts by weight of Aktisil®MM [kaolin (filler), Hoffmann Mineral, Neuburg/Donau], 5.0 parts by weight of Naftolen®N 401 [plasticizer, Metallgesellschaft], 10.0 parts by weight of zinc oxide [vulcanization activator], 2.0 parts by weight of stearic acid [vulcanization activator], 2.0 parts by weight of sulfur [vulcanizing agent], 1.0 part by weight of Vulkacit®MOZ [vulcanisation accelerator, Bayer], 0.25 part by weight of Vulkacit®Thiuram [vulcanization accelerator, Bayer] and 1.0 part by weight of the stabilizer to be tested according to Table 24, to form a homogeneous mixture, the vulcanization system (sulfur, Vulkacit®MOZ and Vulkacit®Thiuram) not being added until the end of the mixing process. The mixture is vulcanized in electrical vulcanization presses at 150° C. until T95 is reached in the rheometer curves to form elastomer plates 2 mm thick, 21 cm long and 8.0 cm wide.
as §2

A short description of test [4]: Light-colored SBR-vulcanisate, ozone atmosphere for 48 hours: crack formation. The arrangement: key: grade 0: Grade 0 denotes no cracks; grade 1 denotes narrow flat cracks; grade 2 denotes moderately broad, moderately deep cracks, clearly visible; grade 3 denotes broad and deep cracks. As to conditions: 1.0 phr stabilizer, ozone 50 pphm, 40° C., dynamic elongation, without stabilizer grade 1-2. Here is the method: as §3
Some of the elastomer plates so obtained are tested for the action of ozone according to the ASTM standard D 3395-86 while subject to dynamic elongation. […] The test plates are then assessed for crack formation according to ASTM D 3395-86. […]

A short description of test [5]: Discoloration of powder coatings based on a carboxy-functional polyester cured in electric and gas ovens. The conditions noted are these: total 0.60% stabilizers rel. to components 1 to 5. The method, then: To prepare the powder coating composition based on a carboxy-functional polyester, components 1 to 6 (formulation without additives) or components 1 to 7 (formulation containing the stabilizers) are employed in the sequence indicated (cf. Table 13).
The components weighed out in this way are mixed using a planetary stirrer. The mixture is then extruded on a prism extruder at 300 revolutions/minute and at 100° C. and is rolled out. The powder coating composition is coarsely comminuted using a bench cutter and is ground in a Retsch ZM-1 ultracentrifugal mill with a 0.75 mm annular-perforation screen at 15,000 revolutions/minute. Finally, the powder is passed through a 30 μm screen on a centrifugal screening machine.
The finished powder coating composition is sprayed electrostatically to a coat thickness of 70 μm onto aluminium panels using an ESB-Wagner corona cup gun at 60 kV. Some of the coated panels are cured at 180° C. for 90 minutes in an electric oven. The remaining coated panels are cured at 180° C. for 45 minutes in a gas oven with an NO2 content of 20 ppm. The yellowness index (YI) of the samples is determined in accordance with ASTM D 1925-70. Low YI values denote little discoloration, high YI values denote severe discoloration of the samples.

Test [6] is described as follows: Stabilization of polyethylene during processing (Brabender plastograph). As to conditions: 0.05 part compound and 0.05 part Irganox 1010 per 100 parts polyethylene; 220° C., 50 rpm; without compound 9.7. Here is the method:
100 parts of polyethylene powder (Lupolen®5260 Z) are blended with 0.05 part of Irganox®1010 (pentaerythritol tetrakis[3-(3,5-di-tert-butyl-4-hydroxyphenyl)propionate]) and 0.05 part of a compound of Table 5 and the blend is kneaded in a Brabender plastograph at 220° C. and 50 rpm. During this time the kneading resistance is recorded continuously as torque. In the course of the kneading time the polymer begins to crosslink after prolonged constancy, as can be determined by the rapid increase in torque. The time taken until a marked increase in torque is shown in Table 5 as a measure of the stabilizing action. The longer this time is the better the stabilizing action.

The nature of test [7]: Stabilization of multiple-extruded polypropylene. The conditions noted are these: 0.05% of compound; heating zones 260, 270, 280° C.; measured at 230° C./2.16 kg; without compound 17.5. The method, then:
1.3 kg of polypropylene powder (Profax 6501), which has been prestabilized with 0.025% of Irganox®1076 (n-octadecyl 3-[3,5-di-tert-butyl-4-hydroxyphenyl]propionate) (melt index 3.2 g/10 min, measured at 230° C./2.16 kg) are blended with 0.05% of Irganox®1010 (pentaerythritol tetrakis[3-(3,5-di-tert-butyl-4-hydroxyphenyl)propionate]), 0.05% of calcium stearate, 0.03% of DHT 4A® (Kyowa Chemical Industry Co., Ltd., [Mg4.5Al2(OH)13CO3.3.5H2O]) and 0.05% of compound of Table 4. This blend is then extruded in an extruder having a cylinder diameter of 20 mm and a length of 400 mm at 100 rpm, the 3 heating zones being adjusted to the following temperatures: 260, 270, 280° C. The extrudate is cooled by drawing it through a water bath and is then granulated. This granulate is repeatedly extruded. After 3 extrusions, the melt index is measured (at 230° C./2.16 kg). A substantial increase in the melt index denotes pronounced chain degradation, i.e. poor stabilization.

Test [8] can be described thus: Stabilization of polycarbonate (yellowness index of extruded granulate). The conditions noted are these: 0.05% stabilizer; granulate after extrusion at a maximum of 280° C.; without stabilizer 10.3. Here is the method:
1.0 kg of a polycarbonate powder which has been dried for 8 hours at 120° C. in a vacuum drying oven (Lexan®145, of General Electric) is charged with the stabilizers listed in Table 22 and is then mixed for 2 minutes in a Henschel mixer. This mixture is then extruded in a Schwabenthan extruder at a maximum of 280° C. The polymer string is then granulated. The granulate so obtained is packed into 1 cm thick polystyrene boxes and the yellowness index (YI) is determined according to ASTM D 1925-70. Low YI values denote little discoloration, high YI values high discoloration of the samples. […]

Test [9] can be described thus: Stabilization of multiple-extruded polypropylene at high temperature. The arrangement: unit not given here. The conditions noted are these: stabilizer 0.100% by weight, measured at 230° C./2.16 kg. The method, then: This blend is then extruded in an extruder having a cylinder diameter of 20 mm and a length of 400 mm at 100 rpm, the 3 heating zones being adjusted to the following temperatures: 280, 320, 340° C. The extrudate is cooled by drawing it through a water bath and is then granulated. This granulate is repeatedly extruded. […] A substantial increase in the melt index denotes pronounced chain degradation, i.e. poor stabilization.

Test [10] can be described thus: Stabilization of polycarbonate (oven ageing at 135° C., yellowness index and transmission). As to conditions: 0.05% stabilizer. Here is the method: This mixture is then extruded in a Schwabenthan extruder at a maximum of 280° C. The polymer string is then granulated. Using an injection moulding machine, plates having a layer thickness of 2 mm are then moulded from the granulate so obtained at a maximum of 300° C. […] Low YI values denote little discoloration, high YI values high discoloration of the patterns. […] The results are compiled in Tables 17 and 18.

A short description of test [11]: Stabilization of polycarbonate (time at 135° C. until YI = 20). The conditions noted are these: 0.05% stabilizer; without stabilizer 1560. Here is the method:
1.0 kg of a polycarbonate powder which has been dried for 8 hours at 120° C. in a vacuum drying oven (Lexan®145, of General Electric) is charged with the stabilizers listed in Table 19 and is mixed for 2 minutes in a Henschel mixer. This mixture is then extruded in a Schwabenthan extruder at a maximum of 280° C. The polymer string is then granulated. Using an injection moulding machine, plates having a layer thickness of 2 mm are then moulded from the granulate so obtained at a maximum of 300° C. These plates are then aged in a circulating air oven at 135° C., the time in hours until the yellowness index (YI) reaches a value of 20 according to ASTM D 1925-70 being measured. […]

For the compound `CC(C)(C)c1cc2c(c(C(C)(C)C)c1)OC(=O)C2c1cc(C#N)cc(C#N)c1` (stereo not drawn) [Compound (108)], the “Crack formation according to ASTM D 3395-86” value in test [1] was “grade 1”; in [4], “grade 0-1”. In addition, the “ΔL-color according to DIN 6167” value in test [2] turned out to be 95; in [3], 96.
On to `CCCCCCCCOC(=O)c1ccc(C2C(=O)Oc3c2cc(C(C)(C)C)cc3C(C)(C)C)cc1` (stereo not drawn) [Compound (110), 5,7-di-tert-butyl-3-(4-n-octyloxycarbonylphenyl)-3H-benzofuran-2-one], for which the “Yellowness index after 90 minutes (ASTM D 1925-70)” value stood at 3.4 in test [5] (Curing for 45 minutes in a gas oven at 180° C., NO2 content 20 ppm, without stabilizer 4.2) and 2.7 in [5] (Curing for 90 minutes in an electric oven at 180° C., without stabilizer 3.1). For the same compound, the “Time until increase in torque” value in [6] is listed as 27.5 min. Besides, in [7], the “Melt index after 3 extrusions” value is 4.7.
The compound `Cc1cc(OP(Oc2cc(C)c(C(C)(C)C)cc2C(C)(C)C)c2ccc(-c3ccc(P(Oc4cc(C)c(C(C)(C)C)cc4C(C)(C)C)Oc4cc(C)c(C(C)(C)C)cc4C(C)(C)C)cc3)cc2)c(C(C)(C)C)cc1C(C)(C)C` [GSY ®P101] had a Yellowness index in test [8] of 5.1.
As to `CC(C)(C)c1ccc(OP(Oc2ccc(C(C)(C)C)cc2C(C)(C)C)Oc2ccc(C(C)(C)C)cc2C(C)(C)C)c(C(C)(C)C)c1` [Irgafos ®168, tris(2,4-di-tert-butylphenyl)phosphite, reference compound], the “Melt index after 5 extrusions” value in [9] (280° C.) stood at 9.7; in [9] (320° C.), 43.8; in [9] (340° C.), 80.1. Further, in [10] (2 mm plates, ASTM D 1925-70), the “Yellowness index prior to oven-ageing” value is recorded as 3.4. Also, the “Transmission in % prior to oven-aging” value in test [10] (at 450 nm) is recorded as 84.7%. Further, in test [10] (at 450 nm, without stabilizer 76.4), the “Transmission in % after 2000 hours at 135° C.” value amounted to 77.8%. For the same compound, the “Yellowness index after 2000 hours at 135° C.” value in test [10] (circulating air oven, without stabilizer 25.0) worked out at 23.5. Also, in test [11], the “Time in hours at 135° C. to YI = 20” value amounted to 2000 h.
Turning to `CC(C)Nc1ccc(Nc2ccccc2)cc1` [Vulkanox ® 4010, 4-isopropylamino-diphenylamine, reference compound], the “Crack formation according to ASTM D 3395-86” value in [1] and in test [4] was “grade 0” throughout. Also, the results for the “ΔL-color according to DIN 6167” value in [2] and in [3] were 56 and 70, respectively.
